Assay results as given in ChEMBL document CHEMBL4842336, “Synthesis and computational studies of novel fused pyrimidinones as a promising scaffold with analgesic, anti-inflammatory and COX inhibitory potential” (Eur J Med Chem, 2021).

Assays:
Rattus norvegicus [1] = assay: Analgesic activity against p-benzoquinone induced writhing in albino rat model assessed as protection rate at 28 uM/kg, ip measured after 30 mins relative to control; format: functional; details: 0.5 h, at 28 µmol/kg
Rattus norvegicus [2] = assay: Analgesic activity against p-benzoquinone induced writhing in albino rat model assessed as protection rate at 28 uM/kg, ip measured after 30 mins relative to indomethacin; format: functional; details: 0.5 h, at 28 µmol/kg
[3] = Toxicity in albino rat assessed as decrease in body weight at; details: in vivo, 24 h, dose <140 µM/Kg
Rattus norvegicus [4] = assay: Anti-inflammatory activity in Wistar albino rat model of carragenan-induced paw edema assessed as reduction in edema thickness at 28 uM/kg, ip measured after 2 hrs by plethysmometer (Rvb =1.6 +/- 0.12 millimeter); format: functional
Rattus norvegicus [5] = assay: Anti-inflammatory activity in Wistar albino rat model of carragenan-induced paw edema assessed as inhibition of inflammation at 28 uM/kg, ip measured after 2 hrs by plethysmometer relative to control; format: functional
Rattus norvegicus [6] = assay: Anti-inflammatory activity in Wistar albino rat model of carragenan-induced paw edema assessed as reduction in edema thickness at 28 uM/kg, ip measured after 3 hrs by plethysmometer (reference value: 1.64 +/- 0.04 millimeter); format: functional; set-up: scale not given: the % may be the effect or the level left; details: at 28 µmol/kg
Rattus norvegicus [7] = assay: Anti-inflammatory activity Wistar albino rat model of carragenan-induced paw edema assessed as inhibition of inflammation at 28 uM/kg, ip measured after 3 hrs by plethysmometer relative to control; format: functional; set-up: scale not given: the % may be the effect or the level left; details: at 28 µmol/kg
[8] = Ulcerogenic activity in fasted albino rat assessed as incidence of ulceration at 28 uM/kg, po administered for 3 consecutive days (reference value: 0 %); format: toxicity, organism-based; details: in vivo, 72 h, time 3 day
[9] = Ulcerogenic activity in fasted albino rat assessed as number of ulcers at 28 uM/kg, po administered for 3 consecutive days (reference value: 0 %); format: toxicity, organism-based; details: in vivo, 72 h, time 3 day
[10] = Ulcerogenic activity in fasted albino rat assessed as severity of ulcers at 28 uM/kg, po administered for 3 consecutive days (reference value: 0 %); format: toxicity, organism-based; details: in vivo, 72 h, time 3 day
[11] = Ulcerogenic activity in fasted albino rat assessed as ulcer index at 28 uM/kg, po administered for 3 consecutive days (reference value: 0); format: toxicity, organism-based; details: in vivo, 72 h, time 3 day
[12] = molecular target: T1, Prostaglandin G/H synthase 1 (Ovis aries, UniProt P05979); assay: Inhibition of ovine COX-1 using arachidonic acid as substrate by fluorescence assay
T1 sequence (P05979 whole entry): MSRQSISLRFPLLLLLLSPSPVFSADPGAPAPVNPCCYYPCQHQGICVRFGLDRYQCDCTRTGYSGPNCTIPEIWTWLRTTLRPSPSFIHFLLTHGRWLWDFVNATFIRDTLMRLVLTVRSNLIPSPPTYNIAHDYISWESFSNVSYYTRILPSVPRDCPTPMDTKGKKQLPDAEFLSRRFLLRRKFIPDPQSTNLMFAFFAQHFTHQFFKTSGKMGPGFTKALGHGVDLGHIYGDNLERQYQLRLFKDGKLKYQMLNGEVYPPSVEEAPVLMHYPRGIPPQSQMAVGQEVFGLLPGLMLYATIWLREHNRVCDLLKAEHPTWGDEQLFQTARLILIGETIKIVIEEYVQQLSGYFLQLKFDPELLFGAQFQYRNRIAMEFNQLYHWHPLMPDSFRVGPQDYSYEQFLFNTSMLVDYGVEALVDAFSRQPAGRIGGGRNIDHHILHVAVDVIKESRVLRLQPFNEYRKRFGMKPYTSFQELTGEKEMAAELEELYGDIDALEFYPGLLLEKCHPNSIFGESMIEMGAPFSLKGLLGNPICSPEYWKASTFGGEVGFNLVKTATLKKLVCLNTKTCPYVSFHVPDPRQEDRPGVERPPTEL

SMILES | Activity (Rattus norvegicus [1]) | Activity (Rattus norvegicus [2]) | Activity [3] | Activity (Rattus norvegicus [4]) | Activity (Rattus norvegicus [5]) | Activity (Rattus norvegicus [6]) | Activity (Rattus norvegicus [7]) | Activity [8] | Activity [9] | Activity [10] | UI [11] | IC50 [12]
Cc1nc2oc(-c3ccc(Cl)cc3)nn2c(=O)c1CCN1CCOCC1 | 66% | 80% |  |  |  |  |  |  |  |  |  | 
COc1ccc(N2CCN(CCc3c(C)nc4oc(-c5ccccc5)nn4c3=O)CC2)cc1 | 100% | 120% | Non-Toxic | 0.43 mm | 0.62 mm | 73.12% | 61.7% | 2% | 0.8% | 1% | 3.8 | 0.14 µM
Cc1nc2sc(-c3ccc(Cl)cc3)nn2c(=O)c1CCN1CCCCC1 | 50% | 60% |  |  |  |  |  |  |  |  |  | 
COc1ccc(N2CCN(CCc3c(C)nc4sc(-c5ccc(Cl)cc5)nn4c3=O)CC2)cc1 | 66% | 60% |  |  |  |  |  |  |  |  |  | 
Cc1nc2oc(-c3ccccc3)nn2c(=O)c1CCN1CCOCC1 | 50% | 60% |  |  |  |  |  |  |  |  |  | 
Cc1nc2oc(-c3ccccc3)nn2c(=O)c1CCN1CCN(c2ccccc2)CC1 | 50% | 60% |  |  |  |  |  |  |  |  |  | 
Cc1nc2sc(-c3ccc(Cl)cc3)nn2c(=O)c1CCN1CCN(c2ccccc2)CC1 | 66% | 60% |  |  |  |  |  |  |  |  |  | 
COc1ccc(N2CCN(CCc3c(C)nc4oc(-c5ccc(Cl)cc5)nn4c3=O)CC2)cc1 | 83% | 100% | Non-Toxic | 0.43 mm | 0.14 mm | 73.12% | 91% | 4% | 0.8% | 1% | 5.8 | 0.35 µM
Cc1nc2oc(-c3ccc(Cl)cc3)nn2c(=O)c1CCN1CCCCC1 | 66% | 80% |  |  |  |  |  |  |  |  |  | 
Cc1nc2sc(-c3ccc(Cl)cc3)nn2c(=O)c1CCN1CCOCC1 | 66% | 80% |  |  |  |  |  |  |  |  |  | 
Cc1nc2oc(-c3ccccc3)nn2c(=O)c1CCN1CCCCC1 | 83% | 100% | Non-Toxic | 0.38 mm | 0.7 mm | 76.25% | 56.16% | 4% | 2.2% | 1.2% | 7.4 | 0.35 µM
Cc1nc2oc(-c3ccc(Cl)cc3)nn2c(=O)c1CCN1CCN(c2ccccc2)CC1 | 83% | 100% | Non-Toxic | 0.08 mm | 0.48 mm | 94.75% | 70.73% | 4% | 0.6% | 1% | 5.6 | 0.148 µM
COc1ccc2c(c1)c(CC(=O)O)c(C)n2C(=O)c1ccc(Cl)cc1 [INDOMETHACIN] | 83% | 100% |  | 0.42 mm | 0.55 mm | 73.29% | 66.46% | 8% | 2.6% | 1.18% | 11.78 | 
